Literature values in patent publication US20120004294A1, “ANTITUMOR COMBINATION COMBINING AVE8062 AND DOCETAXEL” (SANOFI, priority 2008, published 2012).

Details: AVE8062A alone, at too high a dose (weekly doses 4.5-30 mg/m^2 studied)

COc1ccc(/C=C\c2cc(OC)c(OC)c(OC)c2)cc1NC(=O)[C@@H](N)CO [AVE8062A]
Cardiotoxicity: cardiotoxicity was observed
